What all share (assay): growth of human tumour cells (NCI), 48 h
The test system of experiment [1] is OVCAR-4.
Experiment [2] deals with SF-268.
Experiment [3] concerns UACC-62.
In experiment [4] the test system is SW-620.
Experiment [5] concerns HCT-116.
Experiment [6] relates to M14.
For experiment [7], the system named is SK-MEL-5.
Experiment [8] deals with MOLT-4.
The test system of experiment [9] is CAKI-1.
The subject of experiment [10] is OVCAR-3.
Experiment [11] deals with NCI-H226.
The subject of experiment [12] is SF-539.
The subject of experiment [13] is RXF 393.
In experiment [14] the test system is HOP-92.
In experiment [15] the test system is A549.
Experiment [16] deals with U-251.
Experiment [17] concerns HCC 2998.
Experiment [18] concerns A498.
Experiment [19] concerns NCI-H23.
The subject of experiment [20] is RPMI-8226.

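All cell lines were grown in 96-well plates and treated with compound for 48 hours. GI50 marks 50% less growth.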 The source made the active and inactive calls. No stated cut-off is given here; in the data, active = GI50 up to about 1.1 µM and inactive = higher.

On to `CC1(C)[C@H](C(=O)O)N2C(=O)[C@@H](NS(=O)(=O)c3ccc([N+](=O)[O-])cc3)[C@H]2S1(=O)=O`, for which the GI50 in experiment [1], in experiment [2], in experiment [3], in [4], in experiment [5] and in experiment [6] was > 100 µM (inactive) throughout. Moreover, the GI50 in [7], in experiment [8], in experiment [9], in [10], in experiment [11] and in [12] was > 100 µM (inactive) throughout. For the same compound, the GI50 in experiment [13], in [14], in [15], in experiment [16], in experiment [17] and in [18] was > 100 µM (inactive) in each case. The GI50 in experiment [19] was > 100 µM (inactive).

On to `OC1C2CCC3C2CC(C(O)(c2ccccc2)c2ccccc2)C13` (stereo not drawn), for which the GI50 was > 100 µM (inactive) in experiment [1]; > 100 µM (inactive) in experiment [2]; 47.5 µM (inactive) in experiment [3]; > 100 µM (inactive) in experiment [4]; 36.1 µM (inactive) in [5]; 65.8 µM (inactive) in experiment [6]. For the same compound, the GI50 in experiment [7] was 28.6 µM (inactive); in [8] it was 35.8 µM (inactive); in [9], 40 µM (inactive); in [10], 29.9 µM (inactive); in experiment [11], 28.6 µM (inactive); in experiment [12], 38.3 µM (inactive). The GI50 is 34.7 µM (inactive) in [13]; 45.2 µM (inactive) in experiment [14]; 36.6 µM (inactive) in experiment [15]; 70.3 µM (inactive) in [16]; > 100 µM (inactive) in experiment [17]; 37 µM (inactive) in experiment [18]. For the same compound, in experiment [19], the GI50 is 44.5 µM (inactive).

For the compound `O=C(NC1CCCCC1)NC12CC3CC(CC(F)(C3)C1)C2`, the GI50 in [3], in experiment [4], in experiment [5], in [6], in [7] and in [8] was > 100 µM (inactive) each time. For the same compound, the GI50 in [10] was > 100 µM (inactive); in experiment [12], > 100 µM (inactive); in experiment [13], > 100 µM (inactive); in experiment [14], 54.5 µM (inactive); in experiment [15] it was > 100 µM (inactive); in experiment [20] it was > 100 µM (inactive). Further, the GI50 in experiment [16], in experiment [17], in experiment [18] and in experiment [19] was > 100 µM (inactive) in each case.

For `O=c1oc(-c2ccc(O)c(O)c2)cc2cccc(O)c12` [THUNBERGINOL A], the GI50 is 20.1 µM (inactive) in experiment [1]; 19.8 µM (inactive) in experiment [2]; 21.1 µM (inactive) in experiment [4]; 10.3 µM (inactive) in experiment [5]; 19.5 µM (inactive) in experiment [6]; 9.4 µM (inactive) in experiment [7]. The GI50 was 3.42 µM (inactive) in [8]; 6.71 µM (inactive) in experiment [9]; 10.5 µM (inactive) in experiment [10]; 23.9 µM (inactive) in experiment [12]; 18.9 µM (inactive) in experiment [13]; 2.07 µM (inactive) in experiment [14]. For the same compound, the GI50 in experiment [15] is 35.4 µM (inactive); in [20], 10.5 µM (inactive); in experiment [17], 12.8 µM (inactive); in experiment [18], 19.9 µM (inactive); in [19], 16.1 µM (inactive).

Regarding `FC(F)(F)c1ccc2c(c1)nc1n2C(c2c(Cl)cccc2Cl)SC1` (stereo not drawn), the GI50 in experiment [1] was 18.3 µM (inactive); in [2], 19.1 µM (inactive); in experiment [3], 14.4 µM (inactive); in experiment [4], 24.3 µM (inactive); in experiment [5], 15.1 µM (inactive); in experiment [6] it was 16.1 µM (inactive). Also, the GI50 in experiment [8] is 38.7 µM (inactive); in experiment [9], 14.9 µM (inactive); in experiment [10], 13.2 µM (inactive); in experiment [11] it was 21.1 µM (inactive); in experiment [12], 19.7 µM (inactive); in [13], 14.4 µM (inactive). The GI50 in experiment [14] is 13.6 µM (inactive); in experiment [15], 18.2 µM (inactive); in experiment [16], 19.3 µM (inactive); in [17], 21.8 µM (inactive); in experiment [18], 17.9 µM (inactive); in [19] it was 20.5 µM (inactive).

As to `CC1=NC(=O)CNN1C1=NNC2(C(=O)N1)c1ccccc1-c1ccccc12`, the GI50 in [1], in experiment [2], in experiment [3], in experiment [4], in experiment [5] and in experiment [6] was > 100 µM (inactive) each time. For the same compound, the GI50 in [7], in experiment [9], in [10], in experiment [11], in experiment [12] and in experiment [13] was > 100 µM (inactive) each time. The GI50 in [14], in experiment [15], in experiment [16], in experiment [17], in experiment [18] and in experiment [19] was > 100 µM (inactive) throughout.

For the compound `Cc1c2c(cc3c1[nH]c1ccccc13)C(c1ccc(Cl)cc1)=NCC2`, the GI50 in experiment [1] was 0.718 µM (active); in experiment [2], 0.598 µM (active); in experiment [3], 0.452 µM (active); in experiment [4], 0.356 µM (active); in [5], 0.542 µM (active); in experiment [7], 0.343 µM (active). Also, the GI50 was 0.426 µM (active) in [8]; 0.29 µM (active) in [10]; 1.3 µM (inactive) in experiment [11]; 0.667 µM (active) in experiment [12]; 0.465 µM (active) in [13]; 0.716 µM (active) in experiment [14]. For the same compound, the GI50 in experiment [15] was 0.665 µM (active); in experiment [20] it was 0.497 µM (active); in experiment [16] it was 0.608 µM (active); in experiment [17] it was 0.991 µM (active); in [18], 0.124 µM (active); in [19], 0.368 µM (active).

As for `CN(C)CC1CCC/C(=C\c2ccccc2)C1=O` (stereo not drawn), the GI50 was 1.6 µM (inactive) in [1]; 2.94 µM (inactive) in [2]; 7.01 µM (inactive) in [3]; 1.55 µM (inactive) in experiment [4]; 1.56 µM (inactive) in experiment [5]; 8.79 µM (inactive) in experiment [7]. In addition, the GI50 was 4.6 µM (inactive) in [8]; 1.77 µM (inactive) in experiment [9]; 1.94 µM (inactive) in experiment [10]; 2.82 µM (inactive) in experiment [11]; 4.04 µM (inactive) in experiment [12]; 2.84 µM (inactive) in experiment [13]. The GI50 in experiment [14] was 2.44 µM (inactive); in experiment [15], 19 µM (inactive); in [16] it was 15.4 µM (inactive); in experiment [17], 15.5 µM (inactive); in experiment [18] it was 17.4 µM (inactive); in experiment [19], 10.2 µM (inactive).

(Values after ChEMBL document CHEMBL1201862, “PubChem BioAssay data set” (2004).)
